How the values were obtained:
[1] = Photostabilization of Avobenzone and OMC, solution on quartz (Experiment 6-2); format: physicochemical; settings: Avobenzone 3%, OMC 7.5%
From the text: Experiment 6-2 compares the compounds at 3% to photostabilize Avobenzone at 3% and OMC at 7.5%. The results are shown in Table 2 and graphically in FIG. 20.

[2] = Voltammetry, redox potential with respect to Ag/AgCl reference electrode; format: physicochemical; settings: vs Ag/AgCl
From the text: For these experiments, dimethylsulfoxide (DMSO) and tetrabutylammonium perchlorate (TBAP) were obtained from Sigma Aldrich and used as received. […] Platinum wires (BASi MW-1032) of diameter 0.5 mm were employed for both the working electrode (WE) and counter electrode (CE). A dry-solvent tolerant Ag/AgCl reference electrode (RE) was obtained from eDAQ (Model ET072). The WE and CE were cleaned prior to each by first rinsing in acetone, then DI, followed by soaking in ˜50% aqueous H2SO4 for 10-20 minutes and then a final DI rinse. The RE electrode was cleaned prior to each use by an acetone rinse followed by DI rinse. Each sample solution was prepared in a fresh glass vial which had been rinsed with DI then acetone and allowed to dry Immediately after preparing each solution, it was purged with pure N2 gas for 15-20 minutes with the electrodes in place. Voltammetry data was collected shortly afterwards with an EG&G PAR 263 A Potentiostant/Galvanostat operated using a Labview-based control program. Scans were performed at various potential ranges between +2.0V and −2.0V (vs Ag/AgCl); all scan rates were constant at 200 mV/s.

[3] = Protoporphyrin IX triplet state quenching by laser flash photolysis; format: physicochemical; settings: PPIX, acetonitrile solutions at room temperature
Experimental: To investigate if triplet states of protoporphyrin IX are quenched by the two compounds, laser flash photolysis experiments were performed. In these experiments, a deoxygenated acetonitrile solution of protoporphyrin IX is excited with short laser pulses from a Nd-YAG laser (355 nm, 5 ns pulse width). Difference absorption kinetic traces were recorded at different observation wavelengths (300 to 800 nm) and from these a transient absorption spectrum was constructed (FIG. 5A). […] In addition, two bands are observed at 320 and 440 nm, which are assigned to the triplet-triplet absorption of protoporphyrin IX. […] Triplet absorption kinetics at 440 nm may be utilized to obtain triplet quenching rate constants by the stabilizers. Triplet decay traces at 440 nm were recorded in the presence of different amounts of the alkoxy […], Formulas […])(1), and the mixture of II(b)(1) and II(c)(1). The decay traces were fitted to a first-order kinetics. The plot of these pseudo-first-order rate constants (inverse decay lifetime) vs. the concentration of the two compounds gives directly the bimolecular triplet quenching rate constant from the slope (FIG. 6). The biomolecular quenching rate constants for singlet excited state (kq^S) and triplet excited state (kq^T) quenching of PPIX by stabilizers in acetonitrile solutions at room temperature is shown in Table 4, as well and the Stern-Volmer rate constants.

[4] = Stern-Volmer analysis of singlet oxygen suppression; format: physicochemical
From the text: The singlet oxygen phosphorescence intensity in the absence of the compound of Formulas I(a)(1), II(a)(1), II(d)(1), II(e)(1), or a mixture of II(b)(1) and II(c)(1) (I0) divided by the singlet oxygen phosphorescence intensity in the presence of compounds of Formula I/II(I) was plotted against the Formula I/II concentration (FIG. 16). From the slope of these plots (Stern-Volmer constant) and the lifetime of the quenched excited state, the bimolecular quenching constant can be extracted. If the excited state, which is quenched by the compound of Formula I(a)(1) (which causes a reduction in singlet oxygen production) is the singlet excited state of protoporphyrin IX then, using the previously measured fluorescence lifetime in acetonitrile (if =12.7 ns) a quenching rate constant of 2.4×10^9 M^−1 s^−1 is estimated. […] The rate constant derived from singlet oxygen phosphorescence quenching (FIG. 16) is only half of the more directly derived rate constant from fluorescence quenching, which could be caused by the difference in solvents or by some contribution of protoporphyrin triplet quenching by the compound of Formula I(a)(1). […] This rate constant is 5 times higher than the directly measured rate constant by laser flash photolysis (6.1×10^6 M^−1 s^−1). […] It must be noted that protoporphyrin IX triplet lifetime of ˜1 μs in air saturated DMSO was only estimated based on the directly measured triplet lifetime in air saturated acetonitrile and considering the different oxygen concentration in DMSO compared to acetonitrile. If necessary, the protoporphyrin IX triplet lifetime in air saturated DMSO can easily be measured by laser flash photolysis. The complex reaction mechanism is summarized in Scheme 1 (FIG. 17).
The biomolecular quenching rate constants for singlet excited state (kq^S) and triplet excited state (kq^T) quenching of PPIX by stabilizers in acetonitrile solutions at room temperature is shown in Table 4, as well and the Stern-Volmer rate constants.
Stern-Volmer constants are in direct correlation with the singlet oxygen suppression efficiency. Table 4 (above) summarizes the Stern-Volmer constants and PPIX singlet and triplet state quenching rate constants. Three different ranges of Stern-Volmer constants were observed. […] For compounds I(a)(1), II(d)(1), and the mixture of II(b)(1) and II(c)(1), Stern-Volmer constants of about 30 M^−1 were observed. For these three stabilizers, high PPIX singlet quenching rate constants (about 5×10^9 M^−1 s^−1) but low triplet quenching rate constants (<10^9 M^−1 s^−1) were observed. Here, the singlet oxygen suppression is probably dominated by PPIX singlet excited state quenching by these stabilizers. […] Because of the very high PPIX triplet quenching rate constant by compound II(a)(1) (3.2×10^9 M^−1 s^−1), the singlet oxygen suppression is probably dominated by triplet quenching. […] These kinetic parameters may include the MePPIX triplet and singlet lifetimes in air saturated and oxygen free CDCl3 and the bimolecular quenching constant by oxygen.

[5] = Protoporphyrin IX fluorescence lifetime quenching (singlet excited state); format: physicochemical; settings: PPIX; for bimolecular quenching rate constant for singlet excited state quenching (in words): acetonitrile; for Singlet Quenching Rate Constant: acetonitrile solutions at room temperature
Experimental: Fluorescence lifetime measurements are a convenient way to measure singlet state quenching by stabilizers. Protoporphyrin IX decay traces were recorded in the absence and presence of compound I(a)(1) and alkoxy […] (FIG. 3). […] The collected data shown in FIG. 3 were used to determine the bimolecular quenching rate constant for singlet excited state quenching by the compounds. The quenching rate constant may be directly extracted from the slope of the plot of the inverse fluorescence lifetime vs. the concentration of the two compounds (FIG. 4). […] The biomolecular quenching rate constants for singlet excited state (kq^S) and triplet excited state (kq^T) quenching of PPIX by stabilizers in acetonitrile solutions at room temperature is shown in Table 4, as well and the Stern-Volmer rate constants.

[6] = UV and visible light absorption spectra of stabilizers; format: physicochemical; settings: acetonitrile
Experimental: UV and visible light absorption spectra were recorded to investigate to what extent each stabilizer itself absorbs UV light. […] Protoporphyrin IX has weak absorption bands above 450 nm, where the two compounds are transparent (FIG. 2). The compound with the oxygen bridge (Formula II(d)(1)) caused a bathocromic shift of the UV absorption of the lowest energy band. The compound with the sulfur bridge (Formula II(e)(1)) shifted the lowest energy band further into the visible region.

[7] = system: visible light-induced free radicals in pig skin; experiment: Visible light-induced free radicals in ALA-treated pig skin by Electron Spin Resonance; settings: 1% reference
Experimental: A conjugated fused tricycle compound according to Formula II(a)(1) reduced visible light-induced free radicals in skin by up to 89% and did so in a dose-dependent manner (FIG. 21). The study was conducted using pig skin, which is recognized for its similarity to human skin. Topical application of aminolevulinic acid (ALA) induced the skin to over-produce the endogenous photosensitizer Protoporphyrin IX (PPIX). Solutions of Formula II(a)(1) at different concentrations were then topically applied to the ALA treated skin after which it was exposed to bright green light. The resulting free radical content of the skin was then measured by Electron Spin Resonance (ESR). Studies conducted in solution have shown that Formula II(a)(1) suppresses singlet oxygen production by PPIX. […] The mechanisms of action of Formula II(a)(1) and Tocopherol are different: the former prevents free radicals from forming; the latter scavenges free radicals after they appear.

[8] = reference value; cited from earlier work
[9] = 0.01 M in 0.1 M TBAP in DMSO, 200 mV/s

| Compound | % UVA ([1]; stabilizer level 1.0) | % UVB ([1]; stabilizer level 1.0) | % UVA ([1]; stabilizer level 2.0) | % UVB ([1]; stabilizer level 2.0) | % UVA ([1]; stabilizer level 4.0) | % UVB ([1]; stabilizer level 4.0) | also measured |
| --- | --- | --- | --- | --- | --- | --- | --- |
| COC(=O)C(C#N)=C1c2ccccc2Sc2ccccc21 [Formula II(e)(1)] |  |  |  |  |  |  | second redox couple, oxidation peak (large) [2]: +434 mV; first (or only) redox couple, oxidation peak [2, 9]: −782 mV; first (or only) redox couple, reduction peak [2, 9]: −969 mV; second redox couple, reduction peak [2, 9]: −1409 mV; first (or only) redox couple, redox potential ([2]; estimated from the peaks): −875 mV; second redox couple, redox potential ([2]; estimated from the peaks): −1347 mV; second redox couple, oxidation peak ([2]; the small peak where two are given): −1286 mV; Triplet Quenching Rate Constant [3]: 0.0012 10^9 M^−1s^−1; Stern-Volmer Constant of ^1O2 Suppression [4]: 1.2 M⁻¹; singlet oxygen suppression (in words) [4]: only negligible singlet oxygen suppression; bimolecular quenching rate constant for singlet excited state quenching (in words) [5]: high quenching rate constant; Singlet Quenching Rate Constant [5]: 0.65 10^9 M^−1s^−1 |
| Cc1c(C)c2c(c(C)c1O)CCC(C)(CCCC(C)CCCC(C)CCCC(C)C)O2 (centres unmarked) [Tocopherol, reference compound] |  |  |  |  |  |  | Free Radicals (a.u.) ([7]; ALA-treated pig skin): 1955 ± 366 a.u.; Free Radicals (%) ([7]; relative to 0 mM control): 78% |
| COC(=O)C(C#N)=c1c2ccccc2c(=C(C#N)C(=O)OC)c2ccccc12 [Formula II(b)(1)] |  |  |  |  |  |  | first (or only) redox couple, oxidation peak [2, 9]: +54 mV; first (or only) redox couple, reduction peak [2, 9]: −545 mV; first (or only) redox couple, redox potential ([2]; estimated from the peaks): −245 mV |
| CCCCC(CC)COC(=O)C(C#N)=C1c2ccccc2Oc2ccccc21 (centres unmarked) [Formula Y-1-9, Ethylhexyl cyano xanthenylidene acetate] | 88.6% | 91.8% | 88.6% | 91.1% | 94.5% | 95.3% |  |
| O=C(c1ccccc1)c1ccccc1 [benzophenone] |  |  |  |  |  |  | quantum yield of singlet oxygen generation (reference) [8]: 0.35 |
| COC(=O)C(C#N)=C1c2ccccc2Oc2ccccc21 [Formula II(d)(1)] |  |  |  |  |  |  | Triplet Quenching Rate Constant [3]: 0.14 10^9 M^−1s^−1; bimolecular quenching rate constant for singlet excited state quenching (in words) [5]: high quenching rate constant; Singlet Quenching Rate Constant [5]: 3.7 10^9 M^−1s^−1 |

Continued, in another order:

| % UVA ([1]; stabilizer level 1.0) | % UVB ([1]; stabilizer level 1.0) | % UVA ([1]; stabilizer level 2.0) | % UVB ([1]; stabilizer level 2.0) | % UVA ([1]; stabilizer level 4.0) | % UVB ([1]; stabilizer level 4.0) | Compound | also measured |
| --- | --- | --- | --- | --- | --- | --- | --- |
| 85.5% | 90.0% | 91.0% | 93.8% | 90.8% | 93.9% | CCCCC(CC)COC(=O)C(C#N)=C1c2ccccc2Sc2ccccc21 (centres unmarked) [Formula Y-1-15, Ethylhexyl cyano thioxanthenylidene acetate] |  |
| 81.3% | 87.8% | 84.2% | 90.1% | 87.3% | 91.5% | CCCCC(CC)COC(=O)C(C#N)=C(c1ccccc1)c1ccc(OC)cc1 (centres unmarked) [SolaStay S1, ethylhexyl methoxycrylene, reference compound] | λmax [6]: 336 nm; extinction coefficient (molar absorptivity) ([6]; at λmax): 13,200 M −1 cm −1 |
| 82.1% | 87.8% | 87.8% | 92.1% | 91.0% | 94.7% | Ethylhexyl dimethyl 2,2′-anthracene-9,10-diylidenebis(cyanoacetate) [Formula Y-1-22] |  |

Source: patent publication US9611246B2, “Compositions, apparatus, systems, and methods for resolving electronic excited states” (HALLSTAR INNOVATIONS CORP., priority 2012, dated 2017)
